# Source: US20050090529A1, “3,5 Disubstituted indazole compounds with nitrogen-bearing 5-membered heterocycles, pharmaceutical compositions, and methods for mediating or inhibiting cell proliferation” (PFIZER INC, priority 2003, published 2005)
# Test system: Cyclin-dependent kinase
# Experiment: Cyclin-dependent kinase inhibition, % inhibition at 10 nM (library Examples 99-270)
# Type: biochemical
# Details: 10 nM compound
# Method in brief: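 Radiometric filter assay: kinase transfers ³²P/³³P from 25 μM ATP to a protein substrate in pH 7.4 HEPES buffer with MgCl2, 2% DMSO, 30° C, 20 min. EDTA stop; substrate captured on nitrocellulose or phosphocellulose membrane, washed with phosphoric acid, counted by phosphorimager.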
row,% Inhib @ 10 nM [%],Compound
1,33,"CCNCc1cncc(-c2ccc3[nH]nc(-c4ncc(C(=O)N5CCN(CC6CCCO6)CC5)[nH]4)c3c2)c1C (centres unmarked) [Example 229, ethyl({4-methyl-5-[3-(5-{[4-(tetrahydrofuran-2-ylmethyl)piperazin-1-yl]carbonyl}-1H-imidazol-2-yl)-1H-indazol-5-yl]pyridin-3-yl}methyl)amine]"
2,74,CCNCc1cncc(-c2ccc3[nH]nc(-c4ncc(C(=O)N5CCN(c6ccc(F)cc6F)CC5)[nH]4)c3c2)c1C [Example 230]
3,67,"CCNCc1cncc(-c2ccc3[nH]nc(-c4ncc(C(=O)N5CCNC(=O)CC5)[nH]4)c3c2)c1C [Example 231, 1-{[2-(5-{5-[(ethylamino)methyl]-4-methylpyridin-3-yl}-1H-indazol-3-yl)-1H-imidazol-5-yl]carbonyl}-1,4-diazepan-5-one]"
4,58,"CCNCc1cncc(-c2ccc3[nH]nc(-c4ncc(C(=O)N(CCOC)CCOC)[nH]4)c3c2)c1C [Example 232, 2-(5-{5-[(ethylamino)methyl]-4-methylpyridin-3-yl}-1H-indazol-3-yl)-N,N-bis(2-methoxyethyl)-1H-imidazole-5-carboxamide]"
5,32,"CCNCc1cncc(-c2ccc3[nH]nc(-c4ncc(C(=O)N5CCCCC5Cc5ccccc5)[nH]4)c3c2)c1C (centres unmarked) [Example 233, {[5-(3-{5-[(2-benzylpipendin-1-yl)carbonyl]-1H-imidazal-2-yl)-1H-indazol-5-yl)-4-methylpyridin-3-yl]methyl}ethylamine]"
6,74,"CCNCc1cncc(-c2ccc3[nH]nc(-c4ncc(C(=O)N5CCc6nc(C)sc6C5)[nH]4)c3c2)c1C [Example 234, ethyl{[4-methyl-5-(3-{5-[(2-methyl-6,7-dihydro[1,3]thiazolo[5,4-c]pyridin-5-(4H)-yl)carbonyl]-1H-imidazol-2-yl)-1H-indazol-5-yl)pyridin-3-yl]methyl}amine]"
7,63,"CCNCc1cncc(-c2ccc3[nH]nc(-c4ncc(C(=O)NCc5ccc(C(C)(C)O)cc5)[nH]4)c3c2)c1C [Example 235, 2-(5-{5-[(ethylamino)methyl]-4-methylpyridin-3-yl}-1H-indazol-3-yl)-N-[4-(1-hydroxy-1-methylethyl)benzyl]-1H-imidazole-5-carboxamide]"
8,74,"CCNCc1cncc(-c2ccc3[nH]nc(-c4ncc(C(=O)N5CCN(c6cccc7ccccc67)CC5)[nH]4)c3c2)c1C [Example 236, ethyl({4-methyl-5-[3-(5-{[4-(1-naphthyl)piperazin-1-yl]carbonyl}-1H-imidazol-2-yl)-1H-indazol-5-yl]pyridin-3-yl}methyl)amine]"
9,47,"CCNCc1cncc(-c2ccc3[nH]nc(-c4ncc(C(=O)NCC5COCCO5)[nH]4)c3c2)c1C (centres unmarked) [Example 237, N-(1,4-dioxan-2-ylmethyl)-2-(5-{5-[(ethyamino)methy]-4-methypyridin-3-yl}-1H-indazol-3-yl)-1H-imidazole-5-carboxamide]"
10,75,"CCNCc1cncc(-c2ccc3[nH]nc(-c4ncc(C(=O)NCc5ccc6[nH]c(C)cc6c5)[nH]4)c3c2)c1C [Example 238, 2-(5-{5-[(ethylamino)methy]-4-methylpyridin-3-yl}-1H-indazol-3-yl)-N-[(2-methyl-1H-indol-5-yl)methyl]-1H-imidazole-5-carboxamide]"
11,75,CCNCc1cncc(-c2ccc3[nH]nc(-c4ncc(C(=O)N5CCC(Cc6ccccc6)C5)[nH]4)c3c2)c1C (centres unmarked) [Example 239]
12,71,CCNCc1cncc(-c2ccc3[nH]nc(-c4ncc(C(=O)N5CCC(S(C)(=O)=O)C5)[nH]4)c3c2)c1C (centres unmarked) [Example 240]
13,59,CCNCc1cncc(-c2ccc3[nH]nc(-c4ncc(C(=O)N(C)CCS(C)(=O)=O)[nH]4)c3c2)c1C [Example 241]
14,66,"CCNCc1cncc(-c2ccc3[nH]nc(-c4ncc(C(=O)N5CCC(c6cccnc6)C5)[nH]4)c3c2)c1C (centres unmarked) [Example 242, ethyl{[4-methyl-5-(3-{5-[(3-pyridin-3-ylpyrrolidin-1-yl)carbonyl]-1H-imidazol-2-yl}-1H-indazol-5-yl)pyridin-3-yl]methyl}amine]"
15,34,"CCNCc1cncc(-c2ccc3[nH]nc(-c4ncc(C(=O)NCCC5CCOCC5)[nH]4)c3c2)c1C [Example 243, 2-(5-{5-[(ethylamino)methyl]-4-methylpyridin-3-yl}-1H-indazol-3-yl)-N-[2-(tetrahydro-2H-pyran-4-yl)ethyl]-1H-imidazole-5-carboxamide]"
16,55,CCNCc1cncc(-c2ccc3[nH]nc(-c4ncc(C(=O)NC(CO)c5cccnc5)[nH]4)c3c2)c1C (centres unmarked) [Example 244]

row,% Inhib @ 10 nM [%],Compound
1,30,"CCNCc1cncc(-c2ccc3[nH]nc(-c4ncc(C(=O)N(CCO)C5CCCCC5)[nH]4)c3c2)c1C [Example 245, N-cyclohexyl-2-(5-{5-[(ethylamino)methyl]-4-methylpyridin-3-yl}-1H-indazol-3-yl)-N-(2-hydroxyethyl)-1H-imidazole-5-carboxamide]"
2,26,"CCNCc1cncc(-c2ccc3[nH]nc(-c4ncc(C(=O)N5CCN(CC(=O)N6CCCCC6)CC5)[nH]4)c3c2)c1C [Example 246, ethyl({4-methyl-5-[3-(5-{[4-(2-oxo-2-piperidin-1-ylethyl)piperazin-1-yl]carbonyl}-1H-imidazol-2-yl)-1H-indazol-5-yl]pyridin-3-yl}methyl)amine]"
3,26,"CCNCc1cncc(-c2ccc3[nH]nc(-c4ncc(C(=O)N5CCC(n6c(C)nc7cnccc76)CC5)[nH]4)c3c2)c1C [Example 247, ethyl({4-methyl-5-[3-(5-{[4-(2-methyl-1H-imidazol[4,5-c]pyridin-1-yl)piperidin-1-yl]carbonyl}-1H-imidazol-2-yl)-1H-indazol-5-yl]pyridin-3-yl}methyl)amine]"
4,67,"CCNCc1cncc(-c2ccc3[nH]nc(-c4ncc(C(=O)NCc5ccc(OC(F)F)cc5)[nH]4)c3c2)c1C [Example 248, N-[4-(difluoromethoxy)benzyl]-2-(5-{5-[(ethylamino)methyl]-4-methylpyridin-3-yl}-1H-indazol-3-yl)-1H-imidazole-5-carboxamide]"
5,69,"CCNCc1cncc(-c2ccc3[nH]nc(-c4ncc(C(=O)NCC(O)COc5ccccc5)[nH]4)c3c2)c1C (centres unmarked) [Example 249, 2-(5-{5-[(ethylamino)methyl]-4-methylpyridin-3-yl}-1H-indazol-3-yl)-N-(2-hydroxy-3-phenoxypropyl)-1H-imidazole-5-carboxamide]"
6,62,"CCNCc1cncc(-c2ccc3[nH]nc(-c4ncc(C(=O)N5CCC(c6ccn[nH]6)CC5)[nH]4)c3c2)c1C [Example 250, ethyl({4-methyl-5-[3-(5-{[4-(1H-pyrazol-5-yl)piperidin-1-yl]carbonyl}-H-imidazol-2-yl)-1 H-indazol-5-yl]pyridin-3-yl}methyl)amine]"
7,27,CCNCc1cncc(-c2ccc3[nH]nc(-c4ncc(C(=O)NCCn5cc(C(=O)NC(C)(C)C)nn5)[nH]4)c3c2)c1C [Example 251]
8,41,"CCNCc1cncc(-c2ccc3[nH]nc(-c4ncc(C(=O)N5CCC(c6ccnc(NCC)n6)CC5)[nH]4)c3c2)c1C [Example 252, N-ethyl-4-(1-{[2-(5-{5-[(ethylamino)methyl]-4-methylpyridin-3-yl}-1H-indazol-3-yl)-1H-imidazol-5-yl]carbonyl}piperidin-4-yl)pyrimidin-2-amine]"
9,18,"CCNCc1cncc(-c2ccc3[nH]nc(-c4ncc(C(=O)NCCC5CCC(=O)N5Cc5ccccc5)[nH]4)c3c2)c1C (centres unmarked) [Example 253, N-[2-(1-benzyl-5-oxopyrrolidin-2-yl)ethyl]-2-(5-{5-[(ethylamina)methyl]-4-methylpyridin-3-yl}-1H-indazol-3-yl)-1H-imidazole-5-carboxamide]"
10,11,"CCNCc1cncc(-c2ccc3[nH]nc(-c4ncc(C(=O)N5CCC6(CC5)CC(N5CCCC5)CO6)[nH]4)c3c2)c1C (centres unmarked) [Example 254, ethyl{[4-methyl-5-(3-{5-[(3-pyrrolidin-1-yl-1-oxa-8-azaspiro[4.5]dec-8-yl)carbonyl]-1H-imidazol-2-yl}-1H-indazol-5-yl)pyridin-3-yl]methyl}amine]"
11,40,"CCNCc1cncc(-c2ccc3[nH]nc(-c4ncc(C(=O)NCc5nnc(-c6ccccc6OC)o5)[nH]4)c3c2)c1C [Example 255, 2-(5-{5-[(ethylamino)methyl]-4-methylpyridin-3-yl}-1H-indazol-3-yl)-N-{[5-(2-methoxyphenyl)-1,3,4-oxadiazol-2-yl]methyl}-1H-imidazole-5-carboxamide]"
12,46,"CCNCc1cncc(-c2ccc3[nH]nc(-c4ncc(C(=O)N5CCC(c6nnc(C7CC7)o6)CC5)[nH]4)c3c2)c1C [Example 256, ({5-[3-(5-[[4-(5-cyclopropyl-1,3,4-oxadiazol-2-yl)piperidin-1-yl]carbonyl}-1H-imidazol-2-yl)-1H-indazol-5-yl]-4-methylpyridin-3-yl}methyl)ethylamine]"
13,37,CCNCc1cncc(-c2ccc3[nH]nc(-c4ncc(C(=O)N5CCC(c6nnc(CN(C)C)o6)CC5)[nH]4)c3c2)c1C [Example 257]
14,49,CCNCc1cncc(-c2ccc3[nH]nc(-c4ncc(C(=O)N(CCC#N)CC5CCCO5)[nH]4)c3c2)c1C (centres unmarked) [Example 258]
15,69,"CCNCc1cncc(-c2ccc3[nH]nc(-c4ncc(C(=O)N5CCc6c(C(=O)NC)csc6C5)[nH]4)c3c2)c1C [Example 259, 6-{[2-(5-{5-[(ethylamino)methyl]-4-methylpyridin-3-yl}-1H-indazol-3-yl)-1H-imidazol-5-yl]carbonyl}-N-methyl-4,5,6,7-tetrahydrothieno[2,3-c]pyridine-3-carboxamlde]"
16,33,"CCNCc1cncc(-c2ccc3[nH]nc(-c4ncc(C(=O)N5CCC(Cc6ncccn6)CC5)[nH]4)c3c2)c1C [Example 260, ethyl({4-methyl-5-[3-(5-{[4-(pyrimidin-2-ylmethyl)piperidin-1-yl]carbonyl}-1H-imidazol-2-yl)-1H-indazol-5-yl]pyridin-3-yl}methyl)amine]"
